One substance from patent US9995734B2, “Human T cell line assay for evaluating the immunologic identity of glatiramer acetate preparations” (Mylan Inc., priority 2013, dated 2018) can be followed below.

The test system of the experiment is Donor 2 Human T-Cell Lines. The experiment can be described thus: BrdU uptake proliferation assay, Donor 2 T-cell lines stimulated with GMA. It counts as cell-based. Particulars: 100 μg/mL GMA; for BrdU uptake: Day 13. How it is done: Proliferation was evaluated by measuring ATP content using a luminescent method (CellTiter Glo Luminescent Cell Viability Assay, Promega, Madison, Wis., cat. #G7571) or by measuring BrdU uptake by ELISA (Millipore cat. #2752), in both cases following kit instructions. A split well format was used. Cells in each well were resuspended and 65 μl transferred to the wells of each of two new U-bottom 96-well plates, to generate the replicate plates. […] Therefore, all three plates received autologous APC (PBMC) treated with mitomycin C to prevent cell division. […] The latter two plates were incubated for 3 days at 37° C., 6% CO2 before adding CellTiter Glo or BrdU and measuring signal. IL-2 was added at 10 U/mL to the original 96-well plate for expansion on Day 17. For subsequent screenings, mitomycin-treated EBV-transformed autologous B-LCL (2×10^5 to 5×10^5 cells/mL) were used as APC.
PBMC were obtained from a normal, healthy, donor having MHC Class II HLA-DRβ1 04:01, 04:04 (Donor 2). […] Nine presumptive GA-specific human T-cell lines were selected for expansion and further analysis based on an increase in the OD of the GA-stimulated test sample of at least 50% relative to an unstimulated control sample.

glatiramer acetate [GMA] had a BrdU uptake (206-1A6, control 0.220) of 0.563 OD450; a BrdU uptake (206-1A7, control 0.329) of 0.688 OD450; a BrdU uptake (206-1A11, control 0.151) of 0.452 OD450; a BrdU uptake (206-1C12, control 0.272) of 0.626 OD450; a BrdU uptake (206-1H1, control 0.109) of 0.447 OD450; a BrdU uptake (206-1H2, control 0.095) of 0.526 OD450. Moreover, the BrdU uptake stood at 0.548 OD450 (206-2A1, control 0.259); 0.444 OD450 (206-2A10, control 0.162); 0.358 OD450 (206-2C3, control 0.146). For the same substance, the “difference in BrdU uptake from control” value (nine Donor 2 lines of Table 17) was “greater than two-fold”. The “increase in the OD of the GA-stimulated test sample relative to an unstimulated control sample” value (nine Donor 2 lines of Table 17) was “at least 50%”.
